Literature values, collected in patent US9913833B2, “Methods of treating developmental disorders using pipradrol” (Ovid Therapeutics Inc., priority 2015, dated 2018).

Tested on: depression
Details: published study on 111 individuals with depression

OC(c1ccccc1)(c1ccccc1)C1CCCCN1 (stereo not shown) [pipradrol]
efficacy in depression compared with placebo: not superior to placebo
